Reference: the NIST ThermoML archive (doi:10.1016/j.jct.2010.12.028)

How the values were obtained:
[1] = xn = mol fraction of the nth substance listed; conditions: 101 kPa, Liquid; for speed of sound: Sing-around technique in a fixed-path interferometer; for mass density: Vibrating tube method
[2] = excess molar enthalpy (molar enthalpy of mixing); xn = mol fraction of the nth substance listed; conditions: 308.15 K, 101 kPa, Liquid

Cc1ccncc1 [4-methylpyridine] + Cc1ccccc1N
[1]
Conditions | mass density, 298.15 K [kg/m3] | mass density, 303.15 K [kg/m3] | mass density, 308.15 K [kg/m3] | speed of sound, 298.15 K [m/s] | speed of sound, 303.15 K [m/s] | speed of sound, 308.15 K [m/s]
x2 = 0.0525 | 953.707 | 949.033 | 944.539 | 1440.5 | 1419.5 | 1399.3
x2 = 0.1236 | 958.201 | 953.635 | 949.213 | 1452.6 | 1431.8 | 1412.2
x2 = 0.1357 | 958.939 | 954.384 | 949.974 | 1454.8 | 1433.9 | 1414.4
x2 = 0.1839 | 961.774 | 957.264 | 952.886 | 1463.1 | 1442.5 | 1423.2
x2 = 0.2328 | 964.507 | 960.045 | 955.673 | 1471.4 | 1451.2 | 1432.1
x2 = 0.2655 | 966.252 | 961.821 | 957.455 | 1477.1 | 1457 | 1438.1
x2 = 0.3023 | 968.154 | 963.746 | 959.382 | 1483.4 | 1463.5 | 1444.7
x2 = 0.3539 | 970.688 | 966.314 | 961.964 | 1492.2 | 1472.7 | 1453.9
x2 = 0.4133 | 973.431 | 969.1 | 964.753 | 1502.4 | 1483 | 1464.4
x2 = 0.4863 | 976.578 | 972.285 | 967.972 | 1514.7 | 1495.5 | 1476.8
x2 = 0.5256 | 978.183 | 973.912 | 969.611 | 1521.3 | 1501.9 | 1483.2
x2 = 0.5671 | 979.804 | 975.56 | 971.274 | 1528.2 | 1508.7 | 1490
x2 = 0.6272 | 982.039 | 977.832 | 973.587 | 1538.3 | 1518.4 | 1499.7
x2 = 0.6963 | 984.487 | 980.309 | 976.116 | 1549.8 | 1529.2 | 1510.4
x2 = 0.7674 | 986.874 | 982.738 | 978.601 | 1561.7 | 1540.2 | 1521.3
x2 = 0.8234 | 988.699 | 984.584 | 980.475 | 1571.2 | 1548.8 | 1530
x2 = 0.8657 | 990.061 | 985.955 | 981.851 | 1578.4 | 1555.4 | 1536.6
x2 = 0.9537 | 992.867 | 988.752 | 984.639 | 1594 | 1569.8 | 1550.6

[2]
Conditions | excess molar enthalpy [kcal/mol]
x2 = 0.0426 | -0.0583
x2 = 0.0815 | -0.106
x2 = 0.1339 | -0.166
x2 = 0.1824 | -0.211
x2 = 0.2243 | -0.246
x2 = 0.2715 | -0.282
x2 = 0.3196 | -0.305
x2 = 0.3825 | -0.332
x2 = 0.4238 | -0.341
x2 = 0.4783 | -0.342
x2 = 0.5362 | -0.338
x2 = 0.5915 | -0.322
x2 = 0.6426 | -0.303
x2 = 0.7121 | -0.261
x2 = 0.7827 | -0.212
x2 = 0.8211 | -0.178
x2 = 0.8916 | -0.114
x2 = 0.9672 | -0.0361
